Reference: ChEMBL document CHEMBL4808216, “Gut-Restricted Selective Cyclooxygenase-2 (COX-2) Inhibitors for Chemoprevention of Colorectal Cancer” (J Med Chem, 2021)

Key:
[1] = Half life in human hepatocytes; type: ADME, cell-based, Hepatocyte
in vivo = settings: C57BL/6J, mouse, colon / portal vein plasma, po, 10 mg/kg
Description: Ratio of drug concentration in C57BL/6J mouse colon to portal vein plasma at 10 mg/kg, po measured after 4 hr by liquid chromatographic triple-quadrupole mass spectrometric method

[2] = Protein binding in human plasma assessed as unbound fraction; type: ADME, cell-free
[3] = Half life in mouse liver microsomes; type: ADME, Microsome
[4] = Drug concentration in C57BL/6J mouse plasma at 10 mg/kg, po administered as cassette dose measured at 4 hrs by LC/MS/MS analysis; type: ADME, organism-based
Homo sapiens = species: Homo sapiens; experiment: Selectivity ratio of IC50 for COX1 in human whole blood assessed as reduction in calcium ionophore-stimulated TXB2 production to IC50 for COX2 in human whole blood assessed as reduction in LPS stimulated PGE2 production; type: tissue-based
[5] = Protein binding in human colon assessed as unbound fraction; type: ADME, tissue-based
[6] = target: Prostaglandin G/H synthase 1 (Homo sapiens, UniProt P23219); experiment: Inhibition of COX1 in human whole blood assessed as reduction in calcium ionophore-stimulated TXB2 production incubated for 1 hr by ELISA; type: tissue-based
Mus musculus [7] = experiment: Antitumor activity in C57BL/6J mouse model of spontaneous GI-tract tumor Apc-min assessed as reduction in total ileum polyp area at 300 mg/kg, po administered as suspension for 10 to 12 weeks; type: functional; settings: time 10-12 weeks, read-out: TGI
Mus musculus [8] = experiment: Antitumor activity in C57BL/6J mouse model of spontaneous GI-tract tumor Apc-min assessed as mouse survival at 30 mg/kg, po administered daily as suspension and measured at day 82 by Kaplan-Meier method; type: functional
[9] = target: T1, Prostaglandin G/H synthase 2 (Homo sapiens, UniProt P35354); experiment: Inhibition of human recombinant COX-2 using arachidonic acid as substrate preincubated for 60 mins followed by substrate addition for 2 secs by ADPH based fluorometric analysis
T1 sequence (P35354 whole entry): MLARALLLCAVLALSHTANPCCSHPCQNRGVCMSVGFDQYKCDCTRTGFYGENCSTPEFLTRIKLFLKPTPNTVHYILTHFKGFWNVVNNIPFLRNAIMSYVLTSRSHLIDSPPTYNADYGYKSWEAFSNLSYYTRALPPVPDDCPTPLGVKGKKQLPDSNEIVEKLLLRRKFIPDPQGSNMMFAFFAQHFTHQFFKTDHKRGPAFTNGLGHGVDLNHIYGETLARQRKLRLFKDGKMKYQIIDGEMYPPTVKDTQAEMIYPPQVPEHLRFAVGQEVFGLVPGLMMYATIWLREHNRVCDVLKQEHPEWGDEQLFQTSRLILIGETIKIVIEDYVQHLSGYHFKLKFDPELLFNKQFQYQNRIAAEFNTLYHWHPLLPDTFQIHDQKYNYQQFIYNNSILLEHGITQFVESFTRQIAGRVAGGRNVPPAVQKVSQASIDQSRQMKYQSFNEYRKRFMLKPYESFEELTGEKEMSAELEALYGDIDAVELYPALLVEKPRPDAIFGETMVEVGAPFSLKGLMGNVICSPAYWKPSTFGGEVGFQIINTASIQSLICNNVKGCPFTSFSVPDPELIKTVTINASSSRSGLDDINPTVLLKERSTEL

[10] = Volume of distribution at steady state in C57BL/6J mouse at 2 mg/kg, iv measured after 0.08 to 24 hrs; type: ADME, organism-based; settings: C57BL/6J, in vivo, time 0.08-24 hrs, read-out: Vdss
[11] = Drug concentration in C57BL/6J mouse portal vein plasma at 10 mg/kg, po administered as cassette dose measured at 4 hrs by LC/MS/MS analysis; type: ADME, organism-based
[12] = Oral bioavailability in dog at 10 mg/kg measured up to 24 hrs by LC-MS analysis; type: ADME, organism-based, Canis lupus familiaris; settings: in vivo

Chain of Prostaglandin G/H synthase 1 (P23219 whole entry): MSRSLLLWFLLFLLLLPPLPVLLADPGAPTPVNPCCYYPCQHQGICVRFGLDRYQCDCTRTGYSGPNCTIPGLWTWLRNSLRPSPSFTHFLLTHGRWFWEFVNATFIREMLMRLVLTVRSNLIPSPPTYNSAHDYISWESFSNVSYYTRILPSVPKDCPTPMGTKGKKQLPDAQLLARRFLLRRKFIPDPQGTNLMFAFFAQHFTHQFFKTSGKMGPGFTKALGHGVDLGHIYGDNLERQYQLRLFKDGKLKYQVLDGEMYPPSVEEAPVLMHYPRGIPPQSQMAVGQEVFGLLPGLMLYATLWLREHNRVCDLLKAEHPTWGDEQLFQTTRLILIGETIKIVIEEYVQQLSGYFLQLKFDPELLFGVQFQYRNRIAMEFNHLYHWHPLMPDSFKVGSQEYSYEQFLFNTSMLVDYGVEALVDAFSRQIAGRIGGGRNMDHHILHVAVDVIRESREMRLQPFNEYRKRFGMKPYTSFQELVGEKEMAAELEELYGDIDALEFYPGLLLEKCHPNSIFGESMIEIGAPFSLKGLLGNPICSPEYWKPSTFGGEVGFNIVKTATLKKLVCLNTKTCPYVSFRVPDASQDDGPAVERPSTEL

## CCCOc1nc(OCC(C)(C)O)c(-c2ccc(S(C)(=O)=O)cc2)cc1CO
[1]
  half-life: 3.1 min
In vivo
  Kp at 4 h: 38
[2]
  fraction unbound: 0.016
[3]
  half-life: 19.6 min
[4]
  concentration at 4 h: 5.7 ng/mL
Homo sapiens
  Ratio IC50: 80
[5]
  fraction unbound: 0.066
[6]
  IC50: 193 µM
Mus musculus [7]
  inhibition in vivo at 300 mg/kg: 41.9%
Mus musculus [8]
  Survival: >82 days
[9]
  Ki: 114 nM
[10]
  Vd: 3.05 L/kg
[11]
  concentration at 4 h: 98.6 ng/mL
[12]
  bioavailability: 79.5%
